# Source: patent publication EP0125508A1, “Method for stabilizing a detrusor muscle while increasing detrusor muscle strength” (United Pharmaceuticals, Inc., priority 1983, dated 1984)
# Where a name gives a salt, the structure may show the parent alone.
# Experiments:
# Stable Detrusor [1] = assay: Isometric test: maximum isometric pressure as a function of bladder volume, stable detrusor; type: in vivo, women; conditions: for I (100): maximum bladder isometric pressure / I (200): maximum bladder isometric pressure / I (300): maximum bladder isometric pressure / I (400): maximum bladder isometric pressure / I (500): maximum bladder isometric pressure / V (1st sense): bladder urine volume at the patient's first sensation to urinate / V (Max): maximum bladder urine volume / V (Urge): bladder urine volume at the patient's urge to urinate: stable detrusor; for I (100): maximum bladder isometric pressure: bladder urine volume 100 ml; for I (200): maximum bladder isometric pressure: bladder urine volume 200 ml; for I (300): maximum bladder isometric pressure: bladder urine volume 300 ml; for I (400): maximum bladder isometric pressure: bladder urine volume 400 ml; for I (500): maximum bladder isometric pressure: bladder urine volume 500 ml; for V (1st sense): bladder urine volume at the patient's first sensation to urinate / V (Max): maximum bladder urine volume / V (Urge): bladder urine volume at the patient's urge to urinate: isometric test
# Description: (§1) Urodynamic studies were performed on 20 women having a mean age of 28 + 7 years. These studies incorporated water cystometrogram, UPP, and isometric tests. Control urodynamic testing without use of thiphenamil hydrochloride was undertaken in all subjects. The effects of a single dose of 400 mg and a single dose of 800 mg of thiphenamil hydrochloride given orally were compared with the control value for each subject. Specifically, the measurements taken included bladder capacity, residual volume, maximum detrusor voiding pressure, and isometric contractility during bladder filling and at bladder capacity. '
# (§2) Referring to Figure 1, data is shown taken from a subject having normal detrusor activity. The parameters measured include isometric detrusor pressure during bladder filling and while voiding under control conditions, EMG and . urine flow rate. Typical segments of a polygraph recording were obtained at a bladder volume of 100 ml (segment A), 200 ml (segment B) and the voiding at 30C ml (segment C). The parameters shown are detrusor pressure in cm H20, EMG (electromyogram) recording showing muscle electrical activity and urine flow rate.
# Hydrolysis in water = type: physicochemical
# Stable Detrusor [2] = assay: Urodynamic studies, filling and voiding phase of the bladder (water cystometrogram), stable detrusor; type: in vivo, women; conditions: for Compliance (compliance of the detrusor muscle) / P (maxflow): bladder pressure at maximum urine flow rate / P (opening): bladder pressure at the patient's initiating urination / P (voiding): bladder voiding pressure / Q (max) / R.U. / V (1st sense): bladder urine volume at the patient's first sensation to urinate / V (Urge): bladder urine volume at the patient's urge to urinate / V (max): maximum bladder urine volume: stable detrusor
# Description: as §1, §2
# Unstable Detrusor [3] = assay: Urodynamic studies, filling and voiding phase of the bladder (water cystometrogram), unstable detrusor; type: in vivo, women; conditions: for Compliance (compliance of the detrusor muscle) / P (maxflow): bladder pressure at maximum urine flow rate / P (opening): bladder pressure at the patient's initiating urination / P (voiding): bladder voiding pressure / Q (max) / R.U. / V (1st sense): bladder urine volume at the patient's first sensation to urinate / V (Urge): bladder urine volume at the patient's urge to urinate / V (max): maximum bladder urine volume: unstable detrusor
# Description: as §1
# Figure 3 illustrates the voiding phase of the cystometrogram for a subject having an unstable detrusor muscle. Spontaneous detrusor contractions are shown to precipitate voiding at a bladder urine volume of about 210 ml. The onset of voiding is associated with involuntary contractions (series of detrusor pressure peaks between 0 and 50 seconds) that are suppressed by increased EMG activity.
# Unstable Detrusor [4] = assay: Isometric test: maximum isometric pressure as a function of bladder volume, unstable detrusor; type: in vivo, women; conditions: for I (100): maximum isometric pressure: bladder urine volume 100 ml; for I (200): maximum isometric pressure: bladder urine volume 200 ml; for I (300): maximum isometric pressure: bladder urine volume 300 ml
# Description: as §1
# [5] = one subject with unstable detrusor, 400 mg dose 30 minutes prior to recording
# [6] = isometric test, single oral dose 400 mg
smiles,measurement,setting,value
"CCN(CC)CCSC(=O)C(c1ccccc1)c1ccccc1 [Thiphenamil Hydrochloride, thiphenamil hydrochloride]",detrusor pressures in segments A and B (Figure 2 versus Figure 1),"Stable Detrusor [1]; one subject with normal detrusor, 400 mg dose, bladder volume 100 ml and 200 ml",considerably higher
same,isometric detrusor pressure during the filling phase of the bladder,"Stable Detrusor [1]; significant increase from control 36.1 + 26.9, dose not stated in the sentence (matches I (100), 400 mg, Table II)",63.0 + 27.1 cm 1120
same,I (100): maximum bladder isometric pressure,Stable Detrusor [1]; single oral dose 400 mg,63.0±27.1 (13) cm H2O
same,I (100): maximum bladder isometric pressure,Stable Detrusor [1]; single oral dose 800 mg,74±34.6 (6) cm H2O
same,I (200): maximum bladder isometric pressure,Stable Detrusor [1]; single oral dose 400 mg,51.9±26.0 (14) cm H2O
same,I (200): maximum bladder isometric pressure,Stable Detrusor [1]; single oral dose 800 mg,65.0±37.8 (7) cm H2O
same,I (300): maximum bladder isometric pressure,Stable Detrusor [1]; single oral dose 400 mg,50.3±25.8 (12) cm H2O
same,I (300): maximum bladder isometric pressure,Stable Detrusor [1]; single oral dose 800 mg,63.4±26.2 (7) cm H2O
same,I (400): maximum bladder isometric pressure,Stable Detrusor [1]; single oral dose 400 mg,46.6±19.5 (10) cm H2O
same,I (400): maximum bladder isometric pressure,Stable Detrusor [1]; single oral dose 800 mg,50.0±27.5 (6) cm H2O
same,I (500): maximum bladder isometric pressure,Stable Detrusor [1]; single oral dose 400 mg,30.1±15.6 (8) cm H2O
same,I (500): maximum bladder isometric pressure,Stable Detrusor [1]; single oral dose 800 mg,34.0±14.4 (2) cm H2O
same,V (1st sense): bladder urine volume at the patient's first sensation to urinate,Stable Detrusor [1]; single oral dose 400 mg,358±106 (18) ml
same,V (Max): maximum bladder urine volume,Stable Detrusor [1]; single oral dose 400 mg,544±151 (11) ml
same,V (Urge): bladder urine volume at the patient's urge to urinate,Stable Detrusor [1]; single oral dose 400 mg,467±94 (18) ml
same,V (1st sense): bladder urine volume at the patient's first sensation to urinate,Stable Detrusor [1]; single oral dose 800 mg,253.3±96.9 (6) ml
same,V (Max): maximum bladder urine volume,Stable Detrusor [1]; single oral dose 800 mg,425±82 (10) ml
same,V (Urge): bladder urine volume at the patient's urge to urinate,Stable Detrusor [1]; single oral dose 800 mg,385±74.6 (7) ml
same,stability in water (hydrolysis),Hydrolysis in water,slowly hydrolizes in water
same,detrusor muscle contractility,"Stable Detrusor [2]; decrease from control 41.3 + 15.3, dose not stated in the sentence (matches P (voiding), 400 mg, Table 1)",37.2 + 16.0 cm H20
same,Compliance (compliance of the detrusor muscle),Stable Detrusor [2]; single oral dose 400 mg,0.002±0.001 liters/cm H2O
same,P (maxflow): bladder pressure at maximum urine flow rate,Stable Detrusor [2]; single oral dose 400 mg,37.9±9.1 (19) cm H2O
same,P (opening): bladder pressure at the patient's initiating urination,Stable Detrusor [2]; single oral dose 400 mg,25.4±13.3 (19) cm H2O
same,P (voiding): bladder voiding pressure,Stable Detrusor [2]; single oral dose 400 mg,37.2±16 (20) cm H2O
same,Q (max),Stable Detrusor [2]; single oral dose 400 mg,16.7±4.4 (21)
same,R.U.,Stable Detrusor [2]; single oral dose 400 mg,132.3±121.4 (18)
same,V (1st sense): bladder urine volume at the patient's first sensation to urinate,Stable Detrusor [2]; single oral dose 400 mg,314±99 (19) ml
same,V (Urge): bladder urine volume at the patient's urge to urinate,Stable Detrusor [2]; single oral dose 400 mg,551±195 (19) ml
same,V (max): maximum bladder urine volume,Stable Detrusor [2]; single oral dose 400 mg,581+155 (19) ml
same,Compliance (compliance of the detrusor muscle),Stable Detrusor [2]; single oral dose 800 mg,0.0025±0.003 liters/cm H2O
same,P (maxflow): bladder pressure at maximum urine flow rate,Stable Detrusor [2]; single oral dose 800 mg,49.5±14.8 (11) cm H2O
same,P (opening): bladder pressure at the patient's initiating urination,Stable Detrusor [2]; single oral dose 800 mg,39.1±12.2 (7) cm H2O
same,P (voiding): bladder voiding pressure,Stable Detrusor [2]; single oral dose 800 mg,65.1±19.1 (11) cm H2O
same,Q (max),Stable Detrusor [2]; single oral dose 800 mg,27.7±9.0 (8)
same,R.U.,Stable Detrusor [2]; single oral dose 800 mg,95.0±72.2 (9)
same,V (1st sense): bladder urine volume at the patient's first sensation to urinate,Stable Detrusor [2]; single oral dose 800 mg,298±67.6 (11) ml
same,V (Urge): bladder urine volume at the patient's urge to urinate,Stable Detrusor [2]; single oral dose 800 mg,381±61 (11) ml
same,V (max): maximum bladder urine volume,Stable Detrusor [2]; single oral dose 800 mg,436±165 (11) ml
same,bladder capacity,Stable Detrusor [2]; versus control,no significant increase
same,"detrusor instability (range of fluctuations of the EMG tracing, Figure 4)",Unstable Detrusor [3]; [5],nearly eliminated
same,"height of the detrusor pressure peaks before voiding, Figure 4 versus Figure 3",Unstable Detrusor [3]; [5],general decrease in the height of those peaks
same,"pattern of detrusor instability (series of increasing detrusor pressure peaks leading up to voiding), Figure 4 versus Figure 3",Unstable Detrusor [3]; [5],shifted significantly to the right
same,voiding (Figure 4),Unstable Detrusor [3]; [5],voluntary and complete
same,Compliance (compliance of the detrusor muscle),Unstable Detrusor [3]; single oral dose 400 mg,0.002±0.001 liters/cm H2O
same,P (maxflow): bladder pressure at maximum urine flow rate,Unstable Detrusor [3]; single oral dose 400 mg,44.0±4.4 (3) cm H2O
same,P (opening): bladder pressure at the patient's initiating urination,Unstable Detrusor [3]; single oral dose 400 mg,30±12 (4) cm H2O
same,P (voiding): bladder voiding pressure,Unstable Detrusor [3]; single oral dose 400 mg,47±7 (4) cm H2O
same,Q (max),Unstable Detrusor [3]; single oral dose 400 mg,15±1.9
same,R.U.,Unstable Detrusor [3]; single oral dose 400 mg,140±85 (2)
same,V (1st sense): bladder urine volume at the patient's first sensation to urinate,Unstable Detrusor [3]; single oral dose 400 mg,270±99 (3) ml
same,V (Urge): bladder urine volume at the patient's urge to urinate,Unstable Detrusor [3]; single oral dose 400 mg,345 ± 191 mL
same,V (max): maximum bladder urine volume,Unstable Detrusor [3]; single oral dose 400 mg,440±57 (2) ml
same,Compliance (compliance of the detrusor muscle),Unstable Detrusor [3]; single oral dose 800 mg,0.0027±0.0004 liters/cm H2O
same,P (maxflow): bladder pressure at maximum urine flow rate,Unstable Detrusor [3]; single oral dose 800 mg,55.3±7.0 (3) cm H2O
same,P (opening): bladder pressure at the patient's initiating urination,Unstable Detrusor [3]; single oral dose 800 mg,44±11.3 (2) cm H2O
same,P (voiding): bladder voiding pressure,Unstable Detrusor [3]; single oral dose 800 mg,52.7±6.4 (3) cm H2O
same,Q (max),Unstable Detrusor [3]; single oral dose 800 mg,18.0±1.8 (3)
same,R.U.,Unstable Detrusor [3]; single oral dose 800 mg,27.5±3.5 (3)
same,V (1st sense): bladder urine volume at the patient's first sensation to urinate,Unstable Detrusor [3]; single oral dose 800 mg,275±35 (3) ml
same,V (Urge): bladder urine volume at the patient's urge to urinate,Unstable Detrusor [3]; single oral dose 800 mg,325±35 (2) ml
same,V (max): maximum bladder urine volume,Unstable Detrusor [3]; single oral dose 800 mg,499±177 (3) ml
same,I (100): maximum isometric pressure,Unstable Detrusor [4]; single oral dose 400 mg,73±39 (14) cm H2O
same,I (100): maximum isometric pressure,Unstable Detrusor [4]; single oral dose 800 mg,78±53 cm H2O
same,I (200): maximum isometric pressure,Unstable Detrusor [4]; single oral dose 400 mg,44±14 (3) cm H2O
same,I (200): maximum isometric pressure,Unstable Detrusor [4]; single oral dose 800 mg,62±57 cm H2O
same,I (300): maximum isometric pressure,Unstable Detrusor [4]; single oral dose 400 mg,75±5 (2) cm H2O
same,I (300): maximum isometric pressure,Unstable Detrusor [4]; single oral dose 800 mg,96 (1) cm H2O
same,V (1st sense): bladder urine volume at the patient's first sensation to urinate,Unstable Detrusor [4]; [6],270+99 (4) ml
same,V (Urge): bladder urine volume at the patient's urge to urinate,Unstable Detrusor [4]; [6],355±53 (4) ml
same,V (Urge): bladder urine volume at the patient's urge to urinate,"Unstable Detrusor [4]; isometric test, single oral dose 800 mg",423 ± 27.5 mL
